The values that follow are results of earlier work, collected in US8877779B2 (priority 2007, dated 2014).

For the series the following is noted: Proc. Natl. Acad. Sci. U.S.A. 97: 4938-4943, 2000.

Consider `O=C1NCN(c2ccccc2)C12CCN([C@@H]1CC[C@H]3CCCc4cccc1c43)CC2` [Ro64-6198], for which the “bioavailability (BA)” value is on record as 4%.
